Measurements reported in patent US20180271930A1, “METHOD FOR RAISING POULTRY” (priority 2015, published 2018).

Legend:
myogenin = assay: Examination 4: myogenin gene expression in superficial pectoral muscle at 3 days old; assay type: in vivo, broiler chicks; conditions: 0.01% by mass additive in feed for 3 days, FIG. 3A, n=4
Description: FIGS. 3A to 3C illustrate graphs showing the expression of genes related to skeletal muscle cell differentiation in superficial pectoral muscles upon administration of each feed composition in Examination 4 (n=4). […] A relative value of the expression level of each factor is expressed as an average±standard deviation of values obtained by dividing the expression levels of each factor by the expression level of RPS9. Newly hatched broiler chicks (Ross Breeders Ltd.) were tested. A control group (=additive-free group), a GSSG addition group (0.01% by mass), and a GSH addition group (0.01% by mass) each consisting of 5 males and 5 females were set and fed with a feed composition for 3 days. […] At this timing, 2 males and 2 females in each group were slaughtered to collect blood and skeletal muscles. The gene expression levels of the MyoD family (myogenin, myostatin, and Pax7) were observed. […] Statistics were analyzed using a mixed model in consideration of a gender difference and an interaction between males and females. A method for determining gene expressions of the above factors in skeletal muscles is described above. An ammonium salt was used as oxidized glutathione (GSSG). The GSSG contained 95.6% by mass of oxidized glutathione, and the content of reduced glutathione mixed therein was 0.1% by mass or less. […]

[1] = Examination 4: body weight of chicks raised until 35 days old after feeding GSSG or GSH for 3 days; assay type: in vivo, broiler chicks; conditions: 0.01% by mass additive in feed for 3 days; n = 6, average ± standard deviation
Description: Newly hatched broiler chicks (Ross Breeders Ltd.) were tested. A control group (=additive-free group), a GSSG addition group (0.01% by mass), and a GSH addition group (0.01% by mass) each consisting of 5 males and 5 females were set and fed with a feed composition for 3 days. […] At this timing, 2 males and 2 females in each group were slaughtered to collect blood and skeletal muscles. The gene expression levels of the MyoD family (myogenin, myostatin, and Pax7) were observed. […] Statistics were analyzed using a mixed model in consideration of a gender difference and an interaction between males and females. An ammonium salt was used as oxidized glutathione (GSSG). The GSSG contained 95.6% by mass of oxidized glutathione, and the content of reduced glutathione mixed therein was 0.1% by mass or less. […] A feed composition, for which the amount of oxidized glutathione (GSSG) added was set to 0.01% by mass, is described in Examination 1. A feed composition, for which the amount of reduced glutathione (GSH) added was set to 0.01% by mass, was prepared by adding 0.01% by mass of GSH, instead of 0.01% by mass of GSSG, to the GSSG-containing feed composition described in detail in Examination 1.

For `N[C@@H](CCC(=O)N[C@@H](CS)C(=O)NCC(=O)O)C(=O)O` [GSH, N—(N-γ-L-glutamyl-L-cysteinyl)glycine, reference compound], the “myogenin expression level vs control group” value (myogenin) was “smaller than the decrease”, the “Weight, 14 days old” value [1] was 512.7 ± 79.8 g and the “Weight, 35 days old” value [1] was 2052 ± 267 g.
